# In patent US20210317165A1, “ZP3 FRAGMENTS IN IMMUNOTHERAPY OF OVARIAN CANCER” (LABORATOIRE HRA-PHARMA, priority 2018, published 2021):
# Tested on: ZP3-specific TCD8
# Experiment: ELISPOT IFNγ of spleen TCD8 stimulated ex vivo with APC pulsed with each peptide separately
# Type: in vivo, HLA-A2/DR1 transgenic mice
# Conditions: mice immunized with pool A+B, restimulation with each peptide separately
# Description: HLA-A2/DR1 transgenic mice received three subcutaneous administrations of peptides pool and GM-CSF/CpG adjuvant as follow:
# A first group (group 1) of mice received 100 μg/mice of a pool of peptides A+B (SEQ ID NO: 1, 2, 4, 5, 6, 10, 12, 13, 15 and 17) and GM-CSF adjuvant at Day 0 (D0). At D1, CpG wad injected. 100 μg/mice of pool of peptides A+B was injected at D14 and D30. Mice were sacrificed and analyzed at D40.
# The ZP3-specific TCD8 response was measured by ex vivo stimulation of TCD8 from spleen of mice with APC pulsed with peptides (each peptides separately). The number of activated TCD8 cells was measured by ELISPOT IFNγ.
sequence,measurement,setting,value
"NMIYITCHL (Peptide of human ZP3) [Peptide 13, hZP3 fragment, position 276]",ZP3-specific TCD8 response,"FIG. 2, listed as SEQ ID NO: 13",strong specific TCD8 response (statistically significant)
"LRLMEENWNA (Peptide of human ZP3) [Peptide 6, hZP3 fragment, position 174]",ZP3-specific TCD8 response,"FIG. 2, listed as SEQ ID NO: 6",strong specific TCD8 response (statistically significant)
"FTVDVFHFA (Peptide of human ZP3) [Peptide 5, hZP3 fragment, position 263]",ZP3-specific TCD8 response,"FIG. 2, listed as SEQ ID NO: 5",strong specific TCD8 response (statistically significant)
